Patent publication US12378201B2, “Histone demethylase inhibitors for treating cancers” (The Board of Regents of the University of Texas System, priority 2019, dated 2025)

What was measured:
22rv1 = experiment: Effect on 22rv1 cell viability; details: for viability at 0.5 µM: 22Rv1, read-out: % Cell Viability of 22rv1 at 0.5 μM; for % Cell Viability of 22rv1 at 1 μM: at 1 μM (stated in cell)
Experimental: (§1) The initial interest was to see the importance of length of side chain on B-3. […] Relative cell growth can be assessed using the MTT (3-(4,5-dimethylthiazol-2-yl)-2,5-diphenyltetrazolium bromide) assay, a colorimetric assay for assessing cell metabolic activity. Cells (1000 to 2000 cells/well) in 150 μL culture medium were seeded in wells of a 96-well plate one day before various concentrations of drugs were added. After continuing culture in the presence of the drugs for the indicated time (3-4 days), 20 μL of 5 mg/mL MTT solution (Sigma-Aldrich) was added into each well. After incubation at 37° C. for 30 min, the culture medium was removed and 100 μL of DMSO was added to dissolve MTT crystals. Plates were shaken for 15 min at room temperature and absorbance at OD590 was read by plate reader.

LnCap cells = experiment: Effect on LnCap cell viability; details: for viability at 1 µM: Homo sapiens, LNCaP, read-out: % Cell Viability of LnCap cells at 1 μM, 1 μM
Experimental: as §1

[1] = test system: LNCaP and 22rv1 cell lines; experiment: SAR statements on LNCaP and 22rv1 cell lines; assay type: cell-based; details: LNCaP 1 μM, 22rv1 0.5 μM
Experimental: All compounds were evaluated for their effects on LNCaP and 22rv1 cell lines at 1 and 0.5 μM concentrations, respectively. […] For this purpose different analogues of B-3 with chain length varying from 0 to 4 carbon were synthesized (Table 1). […] In view of the availability of a variety of commercially available benzyl amines over phenyl propyl amines and method to functionalize analogues with 1C chain compound 14c was selected for further modification.

KDM4 = details: previous report; cited from earlier work
[2] = test system: KDM4B-regulated AR-V7 expression; details: previous report; cited from earlier work
[3] = test system: cancer cell lines including PC3; details: previous report; includes PC3 cells lacking AR; cited from earlier work

SMILES | % Cell Viability of 22rv1 at 0.5 μM (22rv1) | % Cell Viability of LnCap cells at 1 μM (LnCap cells) | activity on cell lines, in words (SAR) [1] | also measured
O=C(NCc1cccc(-c2ccccc2)c1)c1cccc(-c2cc(O)c3ncccc3c2)c1 [Compound 16h] | 26.9% | 21.8% |  | 
O=C(NCc1ccncc1)c1cccc(-c2cc(O)c3ncccc3c2)c1 [Compound 15u] |  | 70.9% |  | 
NC(=O)c1ccc(CNC(=O)c2cccc(-c3cc(O)c4ncccc4c3)c2)cc1 [Compound 17b] | 78.4% |  | lower activity than B-3 | 
O=C(NCc1ccc(C(=O)c2ccccc2)cc1)c1cccc(-c2cc(O)c3ncccc3c2)c1 [Compound 16k] | 6.4% | 26.7 (B-3, ND) % |  | 
O=C(NCc1ccc(C(F)(F)F)cc1F)c1cccc(-c2cc(O)c3ncccc3c2)c1 [Compound 15r] |  | 101% |  | 
O=C(NCCCCc1ccccc1)c1cccc(-c2cc(O)c3ncccc3c2)c1 [Compound 14a] |  |  | deterioration of activity | 
O=C(NCc1ccccc1C(F)(F)F)c1cccc(-c2cc(O)c3ncccc3c2)c1 [Compound 15o] |  | 94.5% |  | 
O=C(NCc1ccccc1O)c1cccc(-c2cc(O)c3ncccc3c2)c1 [Compound 15f] |  | 56.9% |  | 
O=C(NCc1cccc(C(F)(F)F)c1)c1cccc(-c2cc(O)c3ncccc3c2)c1 [Compound 15n] |  | 75.4% |  | 
O=C(NCc1cc(C(F)(F)F)cc(C(F)(F)F)c1)c1cccc(-c2cc(O)c3ncccc3c2)c1 [Compound 15p] |  | 62.5% |  | 
O=C(NCc1ccc(C(=O)N[C@H]2CC[C@H](C(F)(F)F)CC2)cc1)c1cccc(-c2cc(O)c3ncccc3c2)c1 [Compound 17m] |  | 24.2% | much more active than compound 17n | 
O=C(NCCCc1ccccc1)c1cccc(-c2cc(O)c3ncccc3c2)c1 [Compound B-3, reference compound] |  |  |  | viability at 0.5 µM (22rv1; Homo sapiens): 63.6%; viability at 1 µM (22rv1; Homo sapiens, 22Rv1, read-out: % Cell Viability of 22rv1 at 1 μM): 42.5%; KDM4 inhibition, in words (KDM4): highly selective and potent KDM4 inhibitor; inhibition of KDM4B-regulated AR-V7 expression, in words [2]: able to inhibit KDM4B-regulated AR-V7 expression; effectiveness against cancer cell lines, in words [3]: highly effective against a variety of cancer cell lines including PC3
O=C(NCc1ccc(C(=O)NC2CCCC2)cc1)c1cccc(-c2cc(O)c3ncccc3c2)c1 [Compound 17i] | 29.8% |  | loss of activity | 
O=C(NCc1ccc(C(=O)Nc2ccc(C(F)(F)F)cc2)cc1)c1cccc(-c2cc(O)c3ncccc3c2)c1 [Compound 17o] |  |  | significantly lower activities compared to compounds 17l and 17m | 
CC1Cc2ccc(-c3ccc(CNC(=O)c4cccc(-c5cc(O)c6ncccc6c5)c4)cc3)cc2O1 (centres unmarked) [Compound 16g] |  | 30.0% |  | 
O=C(NCc1ccccc1-c1ccc(CN2CCCC2=O)cc1)c1cccc(-c2cc(O)c3ncccc3c2)c1 [Compound 16j] | 14.3% | 10.9% |  | inhibition of 22rv1 cells, in words (22rv1; compared with B-3): inhibited 22rv1 cells much better than B-3
O=C(NCc1ccc(C(=O)NC2CCCCC2)cc1)c1cccc(-c2cc(O)c3ncccc3c2)c1 [Compound 17j] | 5.0% |  | significant jump in activity compared to B-3 | 
O=C(NCc1ccc(-c2ccc(C(F)(F)F)cc2)cc1)c1cccc(-c2cc(O)c3ncccc3c2)c1 [Compound 16f] |  | 44.2% |  | 
O=C(NCCc1ccccc1)c1cccc(-c2cc(O)c3ncccc3c2)c1 [Compound 14b] | 83.7% (B-3, |  | deterioration of activity | 
N#Cc1ccc(CNC(=O)c2cccc(-c3cc(O)c4ncccc4c3)c2)cc1 [Compound 15s] |  | 52.8% (B-3, ND) |  | 
O=C(NCc1ccc(C(=O)N[C@H]2CC[C@@H](C(F)(F)F)CC2)cc1)c1cccc(-c2cc(O)c3ncccc3c2)c1 [Compound 17n] |  |  | 17m (trans isomer) was much more active than compound 17n | 
O=C(NCc1ccc(C(=O)NC2CCCCCC2)cc1)c1cccc(-c2cc(O)c3ncccc3c2)c1 [Compound 17k] | 10.8% |  | loss of activity | 
O=C(NCc1ccccc1)c1cccc(-c2cc(O)c3ncccc3c2)c1 [Compound 14c] | 79.3% (B-3, |  | restoration of activity | 

SMILES | % Cell Viability of 22rv1 at 0.5 μM (22rv1) | % Cell Viability of LnCap cells at 1 μM (LnCap cells) | activity on cell lines, in words (SAR) [1] | also measured
COc1ccc(CNC(=O)c2cccc(-c3cc(O)c4ncccc4c3)c2)cc1OC [Compound 15l] |  | 75.7 (B-3, ND) % |  | 
COc1cccc(CNC(=O)c2cccc(-c3cc(O)c4ncccc4c3)c2)c1 [Compound 15h] |  | 88.5% (B-3, ND) |  | 
CN(C)c1ccc(CNC(=O)c2cccc(-c3cc(O)c4ncccc4c3)c2)cc1 [Compound 15t] | 19.6% | 66.3% |  | 
CCOC(=O)c1ccc(CNC(=O)c2cccc(-c3cc(O)c4ncccc4c3)c2)cc1 [Compound 17d] | 22.7% |  |  | 
CC(C)CNC(=O)c1ccc(CNC(=O)c2cccc(-c3cc(O)c4ncccc4c3)c2)cc1 [Compound 17f] | 41.0% |  | proved useful | 
O=C(O)c1ccc(CNC(=O)c2cccc(-c3cc(O)c4ncccc4c3)c2)cc1 [Compound 17a] |  |  |  | viability at 1 µM (LnCap cells): 97.5%
CCCOC(=O)c1ccc(CNC(=O)c2cccc(-c3cc(O)c4ncccc4c3)c2)cc1 [Compound 17e] | 7.9% |  | better than compound 17c | 
COc1cc(CNC(=O)c2cccc(-c3cc(O)c4ncccc4c3)c2)cc(OC)c1OC [Compound 15k] |  | 98.1 (B-3, ND) % |  | 
O=C(NCc1cccs1)c1cccc(-c2cc(O)c3ncccc3c2)c1 [Compound 15v] |  | 79.8% |  | 
O=C(NCc1ccc(Oc2ccc(Cl)cc2)cc1)c1cccc(-c2cc(O)c3ncccc3c2)c1 [Compound 16b] |  |  |  | % Cell Viability of 22rv1 at 1 μM (22rv1): 33.2%
O=C(NCc1ccc(F)cc1)c1cccc(-c2cc(O)c3ncccc3c2)c1 [Compound 15a] |  | 72.8% |  | 
O=C(NCc1ccc(Oc2ccc(F)cc2)cc1)c1cccc(-c2cc(O)c3ncccc3c2)c1 [Compound 16d] |  |  |  | % Cell Viability of 22rv1 at 1 μM (22rv1): 35.1%
O=C(NCc1cccc(O)c1)c1cccc(-c2cc(O)c3ncccc3c2)c1 [Compound 15e] |  | 87.9% |  | 
O=C(NCc1ccc(C(F)(F)F)cc1)c1cccc(-c2cc(O)c3ncccc3c2)c1 [Compound 15m] |  | 67.7% |  | 
O=C(NCC1CCCCC1)c1cccc(-c2cc(O)c3ncccc3c2)c1 [Compound 15x] |  | 104% (B-3, ND) |  | 
COc1ccc(CNC(=O)c2cccc(-c3cc(O)c4ncccc4c3)c2)cc1 [Compound 15g] |  | 68.4% |  | 
CC(C)NC(=O)c1ccc(CNC(=O)c2cccc(-c3cc(O)c4ncccc4c3)c2)cc1 [Compound 17g] | 41.0% |  | proved useful | 
O=C(NCC1CC1)c1cccc(-c2cc(O)c3ncccc3c2)c1 [Compound 15w] |  | 60.7% |  | 
O=C(NCc1ccc(Oc2ccccc2Cl)cc1)c1cccc(-c2cc(O)c3ncccc3c2)c1 [Compound 16c] |  |  |  | % Cell Viability of 22rv1 at 1 μM (22rv1): 38.1%
O=C(NCc1ccc(Oc2ccccc2)cc1)c1cccc(-c2cc(O)c3ncccc3c2)c1 [Compound 16a] |  |  | significant improvement of activity over B-3 | % Cell Viability of 22rv1 at 1 μM (22rv1): 29.5%
O=C(NCc1cccc(-c2ccc(F)cc2)c1)c1cccc(-c2cc(O)c3ncccc3c2)c1 [Compound 16i] | 42.01% | 17.3% |  | 
O=C(Nc1ccccc1)c1cccc(-c2cc(O)c3ncccc3c2)c1 [Compound 14d] |  |  | poor activity | 
COC(=O)c1ccc(CNC(=O)c2cccc(-c3cc(O)c4ncccc4c3)c2)cc1 [Compound 17c] |  |  |  | viability at 0.5 µM (22rv1; Homo sapiens): 12.9%; viability at 1 µM (LnCap cells): 47.9%
